Laboratory results reported in US8207221B2, “Crystalline polymorphs of a CXC-chemokine receptor ligand” (Schering Corporation, priority 2004, dated 2012).

Test system: CXC-chemokine receptor
Experiment: activity as a CXC-chemokine receptor ligand
Details: qualitative statement, no method or figures given

| activity as a CXC-chemokine receptor ligand | SMILES |
| --- | --- |
| substantially similar activity | CC[C@@H](Nc1c(Nc2cccc(C(=O)N(C)C)c2O)c(=O)c1=O)c1ccc(C)o1 [monohydrate form of Compound A] |
| particularly active | CC[C@@H](Nc1c(Nc2cccc(C(=O)N(C)C)c2O)c(=O)c1=O)c1ccc(C)o1 [Anhydrous Compound A] |
